Columns and labels:
Assay type in all cases: functional
[1] = Cytotoxicity against human nasopharyngeal carcinoma cells; conditions: Nasopharyngeal carcinoma cell, read-out: ED50 (the source's name)
[2] = Cytotoxicity against human colon carcinoma cells; conditions: Colon carcinoma cell, read-out: ED50 (the source's name)
[3] = Cytotoxicity against human squamous cervical carcinoma cells; conditions: read-out: ED50 (the source's name)
[4] = Cytotoxicity against human ovarian carcinoma cells; conditions: Ovarian carcinoma cell, read-out: ED50 (the source's name)

Measured: EC50

CCCCCCCCCCCC(=O)O[C@H]1[C@H](O[C@@H]2[C@H]3OC(=O)CCCCCCCCC[C@H](CCCCC)O[C@@H]4O[C@H](C)[C@H](O)[C@H](O)[C@H]4O[C@H](O[C@H]2C)[C@@H]3O)O[C@@H](C)[C@H](O[C@@H]2O[C@@H](C)[C@H](OC(=O)C(C)C)[C@@H](O)[C@H]2O)[C@H]1O[C@@H]1O[C@@H](C)[C@H](O)[C@@H](O)[C@H]1O [PESCAPREIN II]
5 µg/mL: all assays above

CCCCCCCCCCCC(=O)O[C@H]1[C@H](O[C@@H]2[C@H]3OC(=O)CCCCCCCCC[C@H](CCCCC)O[C@@H]4O[C@H](C)[C@H](O)[C@H](O)[C@H]4O[C@H](O[C@H]2C)[C@@H]3O)O[C@@H](C)[C@H](O[C@@H]2O[C@@H](C)[C@H](OC(=O)CCCCC)[C@@H](O)[C@H]2O)[C@H]1O[C@@H]1O[C@@H](C)[C@H](O)[C@@H](O)[C@H]1O [PESCAPREIN IV]
5 µg/mL: all assays above

CCCCCCCCCCCC(=O)O[C@H]1[C@H](O[C@@H]2[C@@H](O)[C@@H](O)[C@H](O[C@H]3[C@H](O[C@@H](CCCCC)CCCCCCCCCC(=O)OC)O[C@H](C)[C@H](O)[C@@H]3O)O[C@H]2C)O[C@@H](C)[C@H](O[C@@H]2O[C@@H](C)[C@H](O)[C@@H](O)[C@H]2O)[C@H]1O[C@@H]1O[C@@H](C)[C@H](O)[C@@H](O)[C@H]1O [PESCAPROSIDE A]
5 µg/mL: all assays above

CCCCCCCCCC(=O)O[C@H]1[C@H](O[C@@H]2[C@H]3OC(=O)CCCCCCCCC[C@H](CCCCC)O[C@@H]4O[C@H](C)[C@H](O)[C@H](O)[C@H]4O[C@H](O[C@H]2C)[C@@H]3O)O[C@@H](C)[C@H](O[C@@H]2O[C@@H](C)[C@H](OC(=O)[C@@H](C)CC)[C@@H](O)[C@H]2O)[C@H]1O[C@@H]1O[C@@H](C)[C@H](O)[C@@H](O)[C@H]1O [STOLONIFERIN III]
5 µg/mL: all assays above

CCCCCCCCCCCC(=O)O[C@H]1[C@H](O[C@@H]2[C@H]3OC(=O)CCCCCCCCC[C@H](CCCCC)O[C@@H]4O[C@H](C)[C@H](O)[C@H](O)[C@H]4O[C@H](O[C@H]2C)[C@@H]3O)O[C@@H](C)[C@H](O[C@@H]2O[C@@H](C)[C@H](OC(=O)[C@@H](C)CC)[C@@H](O)[C@H]2O)[C@H]1O[C@@H]1O[C@@H](C)[C@H](O)[C@@H](O)[C@H]1O [PESCAPREIN III]
5 µg/mL: all assays above

CCCCCCCCCCCC(=O)O[C@H]1[C@H](O[C@@H]2[C@H]3OC(=O)CCCCCCCCC[C@H](CCCCC)O[C@@H]4O[C@H](C)[C@H](O)[C@H](O)[C@H]4O[C@H](O[C@H]2C)[C@@H]3O)O[C@@H](C)[C@H](O[C@@H]2O[C@@H](C)[C@H](O)[C@@H](O)[C@H]2O)[C@H]1O[C@@H]1O[C@@H](C)[C@H](O)[C@@H](O)[C@H]1O [PESCAPREIN I]
5 µg/mL: all assays above

— ChEMBL document CHEMBL1158690, “Characterization of lipophilic pentasaccharides from beach morning glory (Ipomoea pes-caprae)” (2005)
